Patent publication US10968231B2, “Substituted cyclyl-acetic acid derivatives for the treatment of metabolic disorders” (TAKEDA PHARMACEUTICAL COMPANY LIMITED, priority 2017, dated 2021)

Molecular target: T1, human GPR40 (Homo sapiens, UniProt O14842)
T1 construct: expressed in transfected cells
Test: Evaluation of human GPR40 agonist activity with increase in intracellular Ca2+ concentration as an index (FLIPR)
Format: cell-based
Settings: test compound at final concentration of 1 μM; CHO(dhfr−) cells stably expressing human GPR40; 100% = activity of 10 μM of compound of WO 2015/020184 Example 153, 0% = DMSO
Procedure: Evaluation of Human GPR40 Agonist Activity with Increase in Intracellular Ca^2+ Concentration as an Index
CHO(dhfr−) cells that stably expressed human GPR40 were suspended in MEMα (Wako Pure Chemical Industries, Ltd.) containing 10% dialyzed serum (Thermo Fisher Scientific), 10 mM HEPES (Thermo Fisher Scientific), 100 U/mL penicillin, 100 μg/mL streptomycin (Wako Pure Chemical Industries, Ltd.), and plated on a 384 well black/clear cell culture plate at 10,000 cells/well. After culture overnight in a CO2 incubator at 37° C., the culture supernatant was removed, and loading buffer [Ca^2+ probe attached to Calcium Kit II-iCellux (DOJINDO) was dissolved in assay buffer (20 mM HEPES, 0.1% fatty acid-free BSA (Wako Pure Chemical Industries, Ltd.), 2.5 mM probenecid (DOJINDO)-containing HBSS (Thermo Fisher Scientific))] was added at 30 μL/well. After leaving for 1 hr at room temperature under light shielding, assay buffer containing the test compound at a final concentration of 1 μM was added at 10 μL/well in fluorescence plate reader FLIPR Tetra (Molecular Devices), and the fluorescence amount was successively measured. Human GPR40 agonist activity was calculated using an increase in the intracellular Ca^2+ concentration as an index, wherein the activity of 10 μM of the compound of WO 2015/020184 (Example 153: 3-cyclopropyl-3-(2-((1-(2-((2-fluoro-2-methylpropyl)(4-methylpyridin-2-yl)carbamoyl)-5-methoxyphenyl)piperidin-4-yl)methoxy)pyridin-4-yl)propanoic acid) was 100%, and the activity when DMSO was added instead of the test compound was 0%.

T1 sequence (O14842 whole entry): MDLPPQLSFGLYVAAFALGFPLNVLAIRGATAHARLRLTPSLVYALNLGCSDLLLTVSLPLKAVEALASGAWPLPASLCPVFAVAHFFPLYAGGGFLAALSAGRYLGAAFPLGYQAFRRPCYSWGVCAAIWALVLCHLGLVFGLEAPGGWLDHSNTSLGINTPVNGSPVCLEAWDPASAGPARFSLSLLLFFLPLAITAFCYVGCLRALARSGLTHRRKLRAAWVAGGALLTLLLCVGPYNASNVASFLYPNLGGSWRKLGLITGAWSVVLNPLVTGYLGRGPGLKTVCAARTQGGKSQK

activity (human GPR40 agonist activity) [%]	Structure (SMILES)
111	COc1cc(N2CCC(COc3cc4c(cn3)OCCC4CC(=O)O)CC2)c(C2CCN(CC(F)(F)F)CC2)cn1 (single isomer, unassigned) [Example 5, (6-((1-(2-methoxy-5-(1-(2,2,2-trifluoroethyl)piperidin-4-yl)pyridin-4-yl)piperidin-4-yl)methoxy)-3,4-dihydro-2H-pyrano[2,3-c]pyridin-4-yl)acetic acid]
59	COc1cc(N2CCC(COc3cc4c(cn3)OCCC4CC(=O)O)CC2)c(C2CCN(CC(F)(F)F)CC2)cn1 (single isomer, unassigned) [Example 6, (6-((1-(2-methoxy-5-(1-(2,2,2-trifluoroethyl)piperidin-4-yl)pyridin-4-yl)piperidin-4-yl)methoxy)-3,4-dihydro-2H-pyrano[2,3-c]pyridin-4-yl)acetic acid]
107	COc1cc(N2CCC(COc3cc4c(cn3)OCCC4CC(=O)O)CC2)c(C2CCN(CC(F)(F)F)CC2)cn1 (single isomer, unassigned) [Example 7, (6-((1-(2-methoxy-5-(1-(2,2,2-trifluoroethyl)piperidin-4-yl)pyridin-4-yl)piperidin-4-yl)methoxy)-3,4-dihydro-2H-pyrano[2,3-c]pyridin-4-yl)acetic acid]
107	COc1ccc(CCC(F)(F)F)c(N2CCC(COc3cc4c(cn3)OCCC4CC(=O)O)CC2)c1 (stereo not shown) [Example 1, (6-((1-(5-methoxy-2-(3,3,3-trifluoropropyl)phenyl)piperidin-4-yl)methoxy)-3,4-dihydro-2H-pyrano[2,3-c]pyridin-4-yl)acetic acid]
108	COc1cc(N2CCC(COc3cc4c(cn3)OCCC4CC(=O)O)CC2)c(OCC(F)(F)C(F)(F)F)cn1 (stereo not shown) [Example 2, (6-((1-(2-methoxy-5-(2,2,3,3,3-pentafluoropropoxy)pyridin-4-yl)piperidin-4-yl)methoxy)-3,4-dihydro-2H-pyrano[2,3-c]pyridin-4-yl)acetic acid]
109	COc1cc(N2CCC(COc3cc4c(cn3)CCC4CC(=O)O)CC2)c(OCC(F)(F)C(F)(F)F)cn1 (stereo not shown) [Example 3, (3-((1-(2-methoxy-5-(2,2,3,3,3-pentafluoropropoxy)pyridin-4-yl)piperidin-4-yl)methoxy)-6,7-dihydro-5H-cyclopenta[c]pyridin-5-yl)acetic acid]
108	COc1ccc(C2CCN(CC(F)(F)F)CC2)c(N2CCC(COc3cc4c(cn3)CCC4CC(=O)O)CC2)c1 (stereo not shown) [Example 4, (3-((1-(5-methoxy-2-(1-(2,2,2-trifluoroethyl)piperidin-4-yl)phenyl)piperidin-4-yl)methoxy)-6,7-dihydro-5H-cyclopenta[c]pyridin-5-yl)acetic acid]
103	COc1ccc(CCC(F)(F)F)c(N2CCC(COc3cc4c(cn3)OCCC4CC(=O)O)CC2)c1 (stereo not shown) [Example 8, (6-((1-(5-methoxy-2-(3,3,3-trifluoropropyl)phenyl)piperidin-4-yl)methoxy)-3,4-dihydro-2H-pyrano[2,3-c]pyridin-4-yl)acetic acid]
104	COc1ccc(C2CCN(CC(F)(F)F)CC2)c(N2CCC(COc3cc4c(cn3)OCCC4CC(=O)O)CC2)c1 (stereo not shown) [Example 9, (6-((1-(5-methoxy-2-(1-(2,2,2-trifluoroethyl)piperidin-4-yl)phenyl)piperidin-4-yl)methoxy)-3,4-dihydro-2H-pyrano[2,3-c]pyridin-4-yl)acetic acid]
105	COc1ccc(C2CCN(CC(F)(F)F)CC2)c(N2CCC(COc3cc4c(cn3)CCC4CC(=O)O)CC2)c1 (stereo not shown) [Example 10, (3-((1-(5-methoxy-2-(1-(2,2,2-trifluoroethyl)piperidin-4-yl)phenyl)piperidin-4-yl)methoxy)-6,7-dihydro-5H-cyclopenta[c]pyridin-5-yl)acetic acid]
107	COc1cc(N2CCC(COc3cc4c(cn3)OCCC4CC(=O)O)CC2)c(OCC(F)(F)C(F)(F)F)cn1 (stereo not shown) [Example 11, (6-((1-(2-methoxy-5-(2,2,3,3,3-pentafluoropropoxy)pyridin-4-yl)piperidin-4-yl)methoxy)-3,4-dihydro-2H-pyrano[2,3-c]pyridin-4-yl)acetic acid]
58	COc1cc(N2CCC(COc3cc4c(cn3)OCCC4CC(=O)O)CC2)c(OCC(F)(F)C(F)(F)F)cn1 (stereo not shown) [Example 17, (6-((1-(2-methoxy-5-(2,2,3,3,3-pentafluoropropoxy)pyridin-4-yl)piperidin-4-yl)methoxy)-3,4-dihydro-2H-pyrano[2,3-c]pyridin-4-yl)acetic acid]
41	COc1ccc(CCC(F)(F)F)c(N2CCC(COc3cc4c(cn3)OCCC4CC(=O)O)CC2)c1 (stereo not shown) [Example 18, (6-((1-(5-methoxy-2-(3,3,3-trifluoropropyl)phenyl)piperidin-4-yl)methoxy)-3,4-dihydro-2H-pyrano[2,3-c]pyridin-4-yl)acetic acid]
54	COc1ccc(C2CCN(CC(F)(F)F)CC2)c(N2CCC(COc3cc4c(cn3)OCCC4CC(=O)O)CC2)c1 (stereo not shown) [Example 28, (6-((1-(5-methoxy-2-(1-(2,2,2-trifluoroethyl)piperidin-4-yl)phenyl)piperidin-4-yl)methoxy)-3,4-dihydro-2H-pyrano[2,3-c]pyridin-4-yl)acetic acid]
65	COc1ccc(C2CCN(CC(F)(F)F)CC2)c(N2CCC(COc3cc4c(cn3)CCC4CC(=O)O)CC2)c1 (stereo not shown) [Example 29, (3-((1-(5-methoxy-2-(1-(2,2,2-trifluoroethyl)piperidin-4-yl)phenyl)piperidin-4-yl)methoxy)-6,7-dihydro-5H-cyclopenta[c]pyridin-5-yl)acetic acid]
110	COc1ccc(C2CCN(CC(F)(F)F)CC2)c(N2CCC(COc3cc4c(cn3)OCCC4CC(=O)O)CC2)c1 (stereo not shown) [Example 36, (6-((1-(5-methoxy-2-(1-(2,2,2-trifluoroethyl)piperidin-4-yl)phenyl)piperidin-4-yl)methoxy)-3,4-dihydro-2H-pyrano[2,3-c]pyridin-4-yl)acetic acid]
